Reference: patent US6596720B1, “Anti-HIV compositions” (priority 1999, dated 2003)

Key:
MT-4 cells = test: Cytotoxicity against MT-4 cells (trypan blue exclusion); type: cell-based; conditions: 2 days, relative to control group
Protocol: (§1) Cytotoxicity Against MT-2 Cells and MT-4 Cells
(§2) MT-2 cells and MT-4 cells were transferred to RPMI 1640 medium (supplemented with 10% FCS) at 2×10^5 cells/ml. […] The cells were cultured at 37° C. Two days later, the trypan blue exclusion test was carried out and the number of living cells in each group was counted.
(§3) Relative survival rate (%), expressed as a percentage, was calculated from the number of living cells in the test drug-treated group relative to the number of living cells in the drug-free solution-treated group as a control group, by the following equation:
(§4) Relative survival rate (%)=(N3/N4)×100
(§5) in which N3 is the number of living cells in the test drug-treated group, and N4 is the number of living cells in the control group.

HIV IIIB strain [1] = test: Antiviral activity against HIV IIIB strain in MT-2 cells (fluorescent antibody assay); type: cell-based; conditions: MOI 0.05, 2 days
Protocol: (§6) Antiviral activity against HIV GUN-1 strain (Jpn. J. Cancer Res., vol. 78, 11-15(1987)) and HIV IIIB strain (Science, vol. 224, 497-500(1984)) in MT-2 cells and MT-4 cells (Nature, vol. 294, 770-771 (1981))
(§7) MT-2 cells and MT-4 cells were transferred to RPMI 1640 medium (supplemented with 10% fetal calf serum (FCS)) at 2×10^5 cells/ml. […] The cells were cultured at 37° C. One hour later, the cells were infected with HIV at multiplicity of infection of 0.05 (MOI=0.05) and cultured at 37° C. for 2 days. Smears of MT-2 cells and MT-4 cells were prepared and assayed for HIV-positive cells by fluorescent antibody assay (Science, vol. 229, 563(1985)). 3′-Azide-3′-deoxythymidine (hereinafter abbreviated as AZT) was used as a positive control.
(§8) The relative infection rate (%), expressed as a percentage, was calculated from the number of HIV-infected cells in the drug-treated group relative to the number of infected cells in the drug-free solution-treated group as a control group by the following equation:
(§9) Relative infection rate (%)=(N1/N2)×100
(§10) in which N1 is the number of HIV-positive cells in the test drug-treated group, and N2 is the number of HIV-positive cells in the control group.

HIV GUN-1 strain [2] = test: Antiviral activity against HIV GUN-1 strain in MT-2 cells (fluorescent antibody assay); type: cell-based; conditions: HIV GUN-1, MT-2 cells, MOI 0.05, 2 days
Protocol: as §6, §7, §8, §9, §10

HIV IIIB strain [3] = test: Antiviral activity against HIV IIIB strain in MT-4 cells (fluorescent antibody assay); type: cell-based; conditions: MOI 0.05, 2 days
Protocol: as §6, §7, §8, §9, §10

MT-2 cells = test: Cytotoxicity against MT-2 cells (trypan blue exclusion); type: cell-based; conditions: 2 days, relative to control group
Protocol: as §1, §2, §3, §4, §5

HIV GUN-1 strain [4] = test: Antiviral activity against HIV GUN-1 strain in MT-4 cells (fluorescent antibody assay); type: cell-based; conditions: HIV GUN-1, MT-4 cells, MOI 0.05, 2 days
Protocol: as §6, §7, §8, §9, §10

HIV GUN-1 strain [5] = test: Antiviral activity against HIV GUN-1 strain in C8166 cells (syncytia count); type: cell-based; conditions: HIV GUN-1, C8166 cells, MOI 0.25, 2 days
Protocol: Antiviral Activity Against HIV GUN-1 Strain in C8166 Cells (Salahuddinn et al., Virology, vol. 129, 51-64(1983))
C8166 cells were transferred to RPMI 1640 medium (supplemented with 10% FCS) at 2×10^5 cells/ml. […] The cells were cultured at 37° C. One hour later, the cells were infected with HIV at multiplicity of infection (MOI) of 0.25 (MOI=0.25) and cultured at 37° C. for 2 days. Then the number of syncytia induced by HIV infection was determined.
Relative infection rate (%), expressed as a percentage, was calculated from the number of HIV-infected cells in the test drug-treated group relative to the number of HIV-infected cells in the drug-free solution-treated group as a control group, by the following equation:
Relative infection rate (%)=(N5/N6)×100
in which N5 is the number of syncytia in the test drug-treated group, and N6 is the number of syncytia in the control group.

## Cc1cn([C@H]2C[C@H](N=[N+]=[N-])[C@@H](CO)O2)c(=O)[nH]c1=O [AZT, 3′-Azide-3′-deoxythymidine]
MT-4 cells; drug 10 μg/ml
  Relative survival rate (%): 100%
MT-4 cells; drug 100 μg/ml
  Relative survival rate (%): 100%
MT-4 cells; drug 1000 μg/ml
  Relative survival rate (%): 84%
HIV IIIB strain [1]; drug 0.001 μg/ml
  Relative infection rate (%): 100%
HIV IIIB strain [1]; drug 0.01 μg/ml
  Relative infection rate (%): 20%
HIV IIIB strain [1]; drug 0.1 μg/ml
  Relative infection rate (%): 10%
HIV IIIB strain [1]; drug 1 μg/ml
  Relative infection rate (%): 0%
HIV IIIB strain [1]; drug 10 μg/ml
  Relative infection rate (%): 0%
HIV IIIB strain [1]; drug 100 μg/ml
  Relative infection rate (%): 0%
HIV IIIB strain [1]; drug 1000 μg/ml
  Relative infection rate (%): 0%
HIV GUN-1 strain [2]; drug 0.001 μg/ml
  Relative infection rate (%): 100%
HIV GUN-1 strain [2]; drug 0.01 μg/ml
  Relative infection rate (%): 30%
HIV GUN-1 strain [2]; drug 0.1 μg/ml
  Relative infection rate (%): 10%
HIV GUN-1 strain [2]; drug 1 μg/ml
  Relative infection rate (%): 0%
HIV GUN-1 strain [2]; drug 10 μg/ml
  Relative infection rate (%): 0%
HIV GUN-1 strain [2]; drug 100 μg/ml
  Relative infection rate (%): 0%
HIV GUN-1 strain [2]; drug 1000 μg/ml
  Relative infection rate (%): 0%
HIV IIIB strain [3]; drug 0.001 μg/ml
  Relative infection rate (%): 100%
HIV IIIB strain [3]; drug 0.01 μg/ml
  Relative infection rate (%): 25%
HIV IIIB strain [3]; drug 0.1 μg/ml
  Relative infection rate (%): 5%
HIV IIIB strain [3]; drug 1 μg/ml
  Relative infection rate (%): 0%
HIV IIIB strain [3]; drug 10 μg/ml
  Relative infection rate (%): 0%
HIV IIIB strain [3]; drug 100 μg/ml
  Relative infection rate (%): 0%
HIV IIIB strain [3]; drug 1000 μg/ml
  Relative infection rate (%): 0%
MT-2 cells; drug 10 μg/ml
  Relative survival rate (%): 100%
MT-2 cells; drug 100 μg/ml
  Relative survival rate (%): 100%
MT-2 cells; drug 1000 μg/ml
  Relative survival rate (%): 100%
HIV GUN-1 strain [4]; drug 0.001 μg/ml
  Relative infection rate (%): 100%
HIV GUN-1 strain [4]; drug 0.01 μg/ml
  Relative infection rate (%): 40%
HIV GUN-1 strain [4]; drug 0.1 μg/ml
  Relative infection rate (%): 4%
HIV GUN-1 strain [4]; drug 1 μg/ml
  Relative infection rate (%): 0%
HIV GUN-1 strain [4]; drug 10 μg/ml
  Relative infection rate (%): 0%
HIV GUN-1 strain [4]; drug 100 μg/ml
  Relative infection rate (%): 0%
HIV GUN-1 strain [4]; drug 1000 μg/ml
  Relative infection rate (%): 0%

## Cl.N=C1CCCN1Cc1[nH]c(=O)[nH]c(=O)c1Cl [Compound 1, 5-Chloro-6-(2-iminopyrrolidin-1-yl)methyl-2,4(1H,3H)-pyrimidinedione Hydrochloride]
Beagle dogs; beagle dogs, FTD + compound 1 versus FTD alone
  Change of the maximum tolerated dose of FTD by compound 1: approximately tripled
SD rats; SD rats, FTD + compound 1 versus FTD alone
  Change of the maximum tolerated dose of FTD by compound 1: approximately tripled

## O=c1[nH]c(=O)n([C@H]2C[C@H](O)[C@@H](CO)O2)cc1C(F)(F)F [FTD, trifluridine]
Beagle dogs; male beagle dogs, oral, repeated for 14 days, combination molar ratio FTD/compound 1=1/0.5
  Maximum tolerated dose (causing no death, expressed as FTD dose): 6 mg/kg
HIV GUN-1 strain [5]; FTD 0.01 μg/ml
  Infection rate (%): 90%
HIV GUN-1 strain [5]; FTD 0.1 μg/ml
  Infection rate (%): 59%
HIV GUN-1 strain [5]; FTD 1 μg/ml
  Infection rate (%): 2%
HIV GUN-1 strain [5]; FTD 10 μg/ml
  Infection rate (%): 0%
HIV GUN-1 strain [5]; FTD 100 μg/ml
  Infection rate (%): 0%
HIV GUN-1 strain [5]; FTD 1000 μg/ml
  Infection rate (%): 0%
SD rats; male SD rats, oral, repeated for 14 days, combination molar ratio FTD/compound 1=1/0.5
  Maximum tolerated dose (causing no death, expressed as FTD dose): 150 mg/kg
